Results from patent US20260151518A1, “LEUKOCYTE-SPECIFIC CELL PENETRATING MOLECULES” (Amytrx Therapeutics, Inc., priority 2021, published 2026).

How the values were obtained:
[1] = Pharmacokinetics of [3H]-AMTX-100 after multiple routes of administration; assay type: in vivo, rat; details: rats, [3H]-AMTX-100
Protocol: AMTX-100 was radiolabeled with 3H at lysine residues and injected into Sprague-Dawley rats in a single dose by seven different routes (intravenous, subcutaneous, topical [skin], intratracheal, intraduodenal, esophageal, and oral). The rats were evaluated at various time points, up to 120 hours, by: a) blood samples were taken for pharmacokinetics (PK) by cardiac puncture; b) rats were frozen and sectioned for QWBA and/or micro-auto-radiography and histology; and c) frozen sections were made and freeze dried and exposed to phosphor-storage imaging plates and tissue radioactivity in images was quantified as tissue: blood ratios.
For all PK studies, the following definitions were used: WB=whole blood; Plasma=whole blood depleted of red blood cells; WBCD=whole blood depleted of white blood cells in which the whole blood is passed over a Pall Acrodisc filter (about 60% efficient); WBCs=the cells which bind to, and are washed off, the Pall Acrodisc filter.

[2] = Pharmacokinetic study, AMTX-100 in plasma by LC-MS; assay type: in vivo; details: mice, sensitive to 2 ng/ml
Human whole blood (WB) = test: Flow cytometry of human whole blood incubated with FITC-labelled peptide; assay type: cell-based
Protocol: It was originally believed that the SSHR on AMTX-100 could enter cells without a receptor, energy or endocytosis. However, in studies performed by the present inventors, an AMTX-100-related peptide with a double-null knockout for Importin α/Importin β complex and Importin β obtained by amino acid substitution and also containing a FITC molecule (FITC-SMTX-100), was incubated with human blood and analyzed by flow cytometry.
Because there appeared to be a concentration of radioactivity in organs with immune cells, a series of flow cytometry experiments was initiated with human blood. All cells were first stained with FITC-AMTX-100 and then incubated with immunotyping reagents that separated hematopoietic cells into broad categories of RBCs, granulocytes, monocytes, B- and T-lymphocytes, and NK cells. […] Again, a highly unexpected finding for a peptide which is “purported” to be a promiscuous, cell-penetrating, leader sequence.
Human whole blood (WB) was obtained from multiple normal donors and incubated with [FITC]-AMTX-100 at μg/mL quantities in repeat experiments ex vivo.
Panels of monoclonal antibodies labeled with fluorescent dyes were used to phenotypically identify [FITC]-AMTX-100 penetrated WB cells including classical monocytes, non-classical monocytes, neutrophils, basophils, eosinophils, and T- and B-lymphocytes and NK cells (FIG. 4A-B). […]

[3] = test system: animal models of lung, liver, sepsis, and metabolic syndrome induced inflammation; details: intraperitoneal injections; cited from earlier work

## CSCC[C@@H]1NC(=O)[C@H](CC(C)C)NC(=O)[C@H](CCCCN)NC(=O)[C@H](CCC(N)=O)CC(=O)[C@H](CCCNC(=N)N)NC(=O)[C@H](CCCCN)NC(=O)[C@H](CCCNC(=N)N)NC(=O)[C@H](CCC(N)=O)NC(=O)[C@H](C(C)C)NC(=O)[C@@H](NC(=O)[C@@H]2CCCN2C(=O)[C@H](C)NC(=O)[C@H](CC(C)C)NC(=O)[C@H](CC(C)C)NC(=O)[C@H](C)NC(=O)[C@H](CC(C)C)NC(=O)[C@H](CC(C)C)NC(=O)[C@@H](NC(=O)[C@H](C)NC(=O)[C@@H]2CCCN2C(=O)[C@H](CC(C)C)NC(=O)[C@H](CC(C)C)NC(=O)[C@H](C)NC(=O)[C@@H](NC(=O)[C@H](C)NC(=O)[C@H](C)N)C(C)C)C(C)C)CSSC[C@@H](C(=O)O)NC(=O)[C@@H]2CCCN2C1=O [AMTX-100]
[1]
  Partition of radiation in blood: partitioned to the WBCs
[2]
  Detection of AMTX-100 in plasma depleted of RBCs and WBCs: not possible to detect
Human whole blood (WB)
  Leukocyte populations targeted: leukocytes (classical and non-classical monocytes, neutrophils, basophils and eosinophils)
[3]
  Efficacy in animal models of inflammation: have shown efficacy
